Experiment [1] has as its system Rattus norvegicus. The experiment in a line: Potentiation of angiotensin 2-induced blood pressure in sham operated rat at 250 ng/kg/min, iv relative to before compound infusion. The class given is functional.
Experiment [2] is described as follows: Antagonist activity at angiotensin AT2 receptor in isolated cat adrenal medulla. The class given is tissue-based, Felis catus.
For experiment [3], the system named is Rattus norvegicus. The experiment in a line: Induction of blood pressure in acute adrenalectomized rat at 250 ng/kg/min, iv measured at 30 mins (reference value: 3.66 +/- 0.74 mmHg). The class given is functional.
In experiment [4] the test system is Rattus norvegicus. The experiment in a line: Induction of blood pressure in 6 days adrenalectomized rat at 250 ng/kg/min, iv measured at 3 mins (reference value: 0.78 +/- 0.26 mmHg). The class given is functional.
Experiment [5] has as its system Rattus norvegicus. The experiment in a line: Induction of blood pressure in rat at 250 ng/kg/min, iv measured at 30 mins (reference value: 3.66 +/- 0.74 mmHg). The class given is functional.
Experiment [6] relates to Rattus norvegicus. The experiment in a line: Potentiation of angiotensin 2-induced blood pressure in chronic adrenalectomized rat at 250 ng/kg/min, iv in presence of propranolol relative to before compound infusion. It counts as functional.
Experiment [7] concerns Rattus norvegicus. The experiment in a line: Induction of blood pressure in chronic adrenalectomized rat at 250 ng/kg/min, iv measured at 30 mins (reference value: 3.66 +/- 0.74 mmHg). It counts as functional.
Experiment [8] concerns Rattus norvegicus. The experiment in a line: Induction of blood pressure in rat at 250 ng/kg/min, iv measured at 30 mins in presence of propranolol (reference value: 3.66 +/- 0.74 mmHg). The class given is functional.
Experiment [9] concerns Rattus norvegicus. The experiment in a line: Induction of blood pressure in sham operated rat at 250 ng/kg/min, iv measured at 30 mins (reference value: 3.66 +/- 0.74 mmHg). The class given is functional.
The subject of experiment [10] is Rattus norvegicus. The experiment in a line: Potentiation of angiotensin 2-induced blood pressure in 6 days adrenalectomized rat at 250 ng/kg/min, iv in presence of propranolol relative to before compound infusion. It counts as functional.
Experiment [11] concerns Rattus norvegicus. The experiment in a line: Induction of blood pressure in 6 days adrenalectomized rat at 250 ng/kg/min, iv measured at 30 mins (reference value: 3.66 +/- 0.74 mmHg). The class given is functional.
The test system of experiment [12] is Rattus norvegicus. The experiment in a line: Potentiation of angiotensin 2-induced blood pressure in acute adrenalectomized rat at 250 ng/kg/min, iv in presence of propranolol relative to before compound infusion. The class given is functional.
The subject of experiment [13] is Rattus norvegicus. The experiment in a line: Induction of blood pressure in sham operated rat at 250 ng/kg/min, iv measured at 3 mins (reference value: 0.78 +/- 0.26 mmHg). It counts as functional.
The subject of experiment [14] is Rattus norvegicus. The experiment in a line: Induction of blood pressure in rat at 250 ng/kg/min, iv measured at 3 mins in presence of propranolol (reference value: 0.78 +/- 0.26 mmHg). The class given is functional.
Experiment [15] has as its system Rattus norvegicus. The experiment in a line: Induction of blood pressure in acute adrenalectomized rat at 250 ng/kg/min, iv measured at 3 mins (reference value: 0.78 +/- 0.26 mmHg). The class given is functional.
The species entered for a further experiment is Felis catus. The experiment in a line: Agonist activity at angiotensin AT2 receptor in isolated cat adrenal medulla assessed as secretory activity relative to angiotensin 2. The class given is tissue-based.
Experiment [16] has as its system Rattus norvegicus. The experiment in a line: Induction of blood pressure in rat at 250 ng/kg/min, iv measured at 3 mins (reference value: 0.78 +/- 0.26 mmHg). It counts as functional.
Experiment [17] has as its system Rattus norvegicus. The experiment in a line: Potentiation of angiotensin 2-induced blood pressure in acute adrenalectomized rat at 250 ng/kg/min, iv relative to before compound infusion. It counts as functional.
The subject of experiment [18] is Rattus norvegicus. The experiment in a line: Potentiation of angiotensin 2-induced blood pressure in rat at 250 ng/kg/min, iv relative to before compound infusion. The class given is functional.
Experiment [19] deals with Rattus norvegicus. The experiment in a line: Induction of blood pressure in chronic adrenalectomized rat at 250 ng/kg/min, iv measured at 3 mins (reference value: 0.78 +/- 0.26 mmHg). It counts as functional.

Broadly, the pA2 is a measure of antagonist potency on a negative log scale. Low values mean lower antagonist potency, high ones higher antagonist potency. For `CC[C@H](C)[C@H](NC(=O)[C@H](Cc1ccc(O)cc1)NC(=O)[C@@H](NC(=O)[C@H](CCCNC(=N)N)NC(=O)CNC)C(C)C)C(=O)N[C@@H](Cc1cnc[nH]1)C(=O)N1CCC[C@H]1C(=O)N[C@H](C(=O)O)[C@@H](C)OC`, the Ratio with Rattus norvegicus [1] worked out at 45.86; in the experiment on Rattus norvegicus [6] it was 12.06; in the experiment with Rattus norvegicus [10], 11.61; in the experiment on Rattus norvegicus [12], 54.16; in the experiment with Rattus norvegicus [17], 22.96; with Rattus norvegicus [18] it was 62.52. In addition, the pA2 in experiment [2] is 7. In addition, the Activity is on record as 7.62 mmHg in the experiment with Rattus norvegicus [3]; 3 mmHg in the experiment with Rattus norvegicus [4]; 15.63 mmHg in the experiment on Rattus norvegicus [5]; 2.25 mmHg with Rattus norvegicus [7]; -1.25 mmHg with Rattus norvegicus [8]; 11 mmHg with Rattus norvegicus [9]. For the same compound, the Activity in the experiment on Rattus norvegicus [11] was -0.4 mmHg; in the experiment with Rattus norvegicus [13], 19.25 mmHg; in the experiment with Rattus norvegicus [14] it was 11.5 mmHg; in the experiment on Rattus norvegicus [15], 7.75 mmHg; in the experiment listed under Felis catus, 0.1%; with Rattus norvegicus [16] it was 13.82 mmHg. Also, the Activity in the experiment with Rattus norvegicus [19] turned out to be 5 mmHg.

(Values after ChEMBL document CHEMBL3272315, “Synthesis of angiotensin II antagonists containing N- and O-methylated and other amino acid residues” (J Med Chem, 1976).)
